In ChEMBL document CHEMBL1201862, “PubChem BioAssay data set” (2004):
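Protocol summary: plate cells (96-well), add compound at 5 concentrations, incubate 48 h, interpolate endpoints linearly. GI50 = concentration required for 50% inhibition of growth.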 Calls of active or inactive are those of the source. No stated cut-off is given here; in the data, active = GI50 up to about 1.1 µM and inactive = higher.

Tests used:
Assay in all cases: NCI-60 cell line screen, 48 h
HL-60 = tested on: HL-60
HCC 2998 = tested on: HCC 2998
HOP-62 = tested on: HOP-62
EKVX = tested on: EKVX
RPMI-8226 = tested on: RPMI-8226
KM12 = tested on: KM12
SK-MEL-28 = tested on: SK-MEL-28
SNB-75 = tested on: SNB-75
OVCAR-3 = tested on: OVCAR-3
KM-20L2 = tested on: KM-20L2
DLD-1 = tested on: DLD-1
SW-620 = tested on: SW-620
OVCAR-4 = tested on: OVCAR-4
COLO 205 = tested on: COLO 205
SNB-19 = tested on: SNB-19
SNB-78 = tested on: SNB-78
SF-268 = tested on: SF-268
MOLT-4 = tested on: MOLT-4
LXFL 529 = tested on: LXFL 529
NCI-H460 = tested on: NCI-H460
OVCAR-8 = tested on: OVCAR-8
SK-MEL-2 = tested on: SK-MEL-2
HCT-116 = tested on: HCT-116
SN12C = tested on: SN12C
A549 = tested on: A549
SF-539 = tested on: SF-539
CCRF-CEM = tested on: CCRF-CEM
OVCAR-5 = tested on: OVCAR-5
TK-10 = tested on: TK-10
NCI-H23 = tested on: NCI-H23
DMS-273 = tested on: DMS-273
786-0 = tested on: 786-0
HOP-92 = tested on: HOP-92
NCI-H522 = tested on: NCI-H522
HT-29 = tested on: HT-29
HOP-18 = tested on: HOP-18
CAKI-1 = tested on: CAKI-1
UACC-62 = tested on: UACC-62
A498 = tested on: A498
Malme-3M = tested on: Malme-3M
DMS-114 = tested on: DMS-114
UACC-257 = tested on: UACC-257
SK-MEL-5 = tested on: SK-MEL-5
SF-295 = tested on: SF-295
M19-MEL = tested on: M19-MEL
IGROV-1 = tested on: IGROV-1
M14 = tested on: M14
HCT-15 = tested on: HCT-15
U-251 = tested on: U-251
SK-OV-3 = tested on: SK-OV-3
ACHN = tested on: ACHN
UO-31 = tested on: UO-31
XF498 = tested on: XF498
NCI-H226 = tested on: NCI-H226
K562 = tested on: K562
RXF 631 = tested on: RXF 631
LOX IMVI = tested on: LOX IMVI
SR = tested on: SR
RXF 393 = tested on: RXF 393

NC1=NN(c2ccccc2)C(=O)C1/C(=N\NC(=O)c1cc2ccccc2cc1O)C(=O)Nc1ccc(Cl)cc1 (centres undefined)
GI50 (HL-60): 3.57 µM (inactive)
GI50 (HCC 2998): 28.9 µM (inactive)
GI50 (HOP-62): 36.6 µM (inactive)
GI50 (EKVX): 22.8 µM (inactive)
GI50 (RPMI-8226): 22.6 µM (inactive)
GI50 (KM12): 27.9 µM (inactive)
GI50 (SK-MEL-28): 25.1 µM (inactive)
GI50 (SNB-75): 4.72 µM (inactive)
GI50 (OVCAR-3): 10.9 µM (inactive)
GI50 (KM-20L2): 32.7 µM (inactive)
GI50 (DLD-1): 21.6 µM (inactive)
GI50 (SW-620): 32.1 µM (inactive)
GI50 (OVCAR-4): 18.5 µM (inactive)
GI50 (COLO 205): 23.1 µM (inactive)
GI50 (SNB-19): 37.8 µM (inactive)
GI50 (SNB-78): 34.8 µM (inactive)
GI50 (SF-268): 12.7 µM (inactive)
GI50 (MOLT-4): 6.78 µM (inactive)
GI50 (LXFL 529): 22.2 µM (inactive)
GI50 (NCI-H460): 13.5 µM (inactive)
GI50 (OVCAR-8): 20.8 µM (inactive)
GI50 (SK-MEL-2): 23.2 µM (inactive)
GI50 (HCT-116): 11.9 µM (inactive)
GI50 (SN12C): 36.8 µM (inactive)
GI50 (A549): 44.5 µM (inactive)
GI50 (SF-539): 23.9 µM (inactive)
GI50 (CCRF-CEM): 3.73 µM (inactive)
GI50 (OVCAR-5): 31.4 µM (inactive)
GI50 (TK-10): 37.1 µM (inactive)
GI50 (NCI-H23): 24.7 µM (inactive)
GI50 (DMS-273): 20.2 µM (inactive)
GI50 (786-0): 20.2 µM (inactive)
GI50 (HOP-92): 23.1 µM (inactive)
GI50 (NCI-H522): 20.4 µM (inactive)
GI50 (HT-29): 42.5 µM (inactive)
GI50 (HOP-18): 25.4 µM (inactive)
GI50 (CAKI-1): 31 µM (inactive)
GI50 (UACC-62): 19 µM (inactive)
GI50 (A498): 24.2 µM (inactive)
GI50 (Malme-3M): 30.8 µM (inactive)
GI50 (DMS-114): 17.9 µM (inactive)
GI50 (UACC-257): 28.6 µM (inactive)
GI50 (SK-MEL-5): 24.7 µM (inactive)
GI50 (SF-295): 35.5 µM (inactive)
GI50 (M19-MEL): 26.4 µM (inactive)
GI50 (IGROV-1): 20 µM (inactive)
GI50 (M14): 20.7 µM (inactive)
GI50 (HCT-15): 10.5 µM
GI50 (U-251): 31.5 µM (inactive)
GI50 (SK-OV-3): 51.5 µM (inactive)
GI50 (ACHN): 26 µM (inactive)
GI50 (UO-31): 21.8 µM (inactive)
GI50 (XF498): 34.6 µM (inactive)
GI50 (NCI-H226): 23.6 µM (inactive)
GI50 (K562): 10.1 µM (inactive)
GI50 (RXF 631): 49.1 µM (inactive)

COc1ccc(CC(C)N)cc1 (centres undefined) [PARA-METHOXYAMPHETAMINE]
GI50 (HL-60): > 100 µM (inactive)
GI50 (LOX IMVI): > 100 µM (inactive)
GI50 (HCC 2998): > 100 µM (inactive)
GI50 (HOP-62): > 100 µM (inactive)
GI50 (EKVX): > 100 µM (inactive)
GI50 (RPMI-8226): > 100 µM (inactive)
GI50 (KM12): > 100 µM (inactive)
GI50 (SK-MEL-28): > 100 µM (inactive)
GI50 (SR): > 100 µM (inactive)
GI50 (SNB-75): > 100 µM (inactive)
GI50 (OVCAR-3): > 100 µM (inactive)
GI50 (KM-20L2): > 100 µM (inactive)
GI50 (DLD-1): > 100 µM (inactive)
GI50 (SW-620): > 100 µM (inactive)
GI50 (OVCAR-4): > 100 µM (inactive)
GI50 (COLO 205): > 100 µM (inactive)
GI50 (SNB-19): > 100 µM (inactive)
GI50 (SNB-78): > 100 µM (inactive)
GI50 (SF-268): > 100 µM (inactive)
GI50 (MOLT-4): > 100 µM (inactive)
GI50 (LXFL 529): > 100 µM (inactive)
GI50 (NCI-H460): > 100 µM (inactive)
GI50 (OVCAR-8): > 100 µM (inactive)
GI50 (SK-MEL-2): > 100 µM (inactive)
GI50 (HCT-116): > 100 µM (inactive)
GI50 (SN12C): > 100 µM (inactive)
GI50 (A549): > 100 µM (inactive)
GI50 (SF-539): > 100 µM (inactive)
GI50 (CCRF-CEM): > 100 µM (inactive)
GI50 (OVCAR-5): > 100 µM (inactive)
GI50 (TK-10): > 100 µM (inactive)
GI50 (NCI-H23): > 100 µM (inactive)
GI50 (DMS-273): > 100 µM (inactive)
GI50 (786-0): > 100 µM (inactive)
GI50 (HOP-92): > 100 µM (inactive)
GI50 (NCI-H522): > 100 µM (inactive)
GI50 (HT-29): > 100 µM (inactive)
GI50 (HOP-18): > 100 µM (inactive)
GI50 (CAKI-1): > 100 µM (inactive)
GI50 (UACC-62): > 100 µM (inactive)
GI50 (A498): > 100 µM (inactive)
GI50 (Malme-3M): > 100 µM (inactive)
GI50 (DMS-114): > 100 µM (inactive)
GI50 (UACC-257): > 100 µM (inactive)
GI50 (SK-MEL-5): > 100 µM (inactive)
GI50 (SF-295): > 100 µM (inactive)
GI50 (IGROV-1): > 100 µM (inactive)
GI50 (M14): > 100 µM (inactive)
GI50 (HCT-15): > 100 µM
GI50 (U-251): > 100 µM (inactive)
GI50 (SK-OV-3): > 100 µM (inactive)
GI50 (ACHN): > 100 µM (inactive)
GI50 (UO-31): > 100 µM (inactive)
GI50 (XF498): > 100 µM (inactive)
GI50 (RXF 393): > 100 µM (inactive)
GI50 (NCI-H226): > 100 µM (inactive)
GI50 (K562): > 100 µM (inactive)
GI50 (RXF 631): > 100 µM (inactive)
